How the values were obtained:
primary T cells = assay: T cell expansion / proliferation by Trypan Blue cell counts; type: cell-based, human; conditions: day 15 post-activation
Procedure: On Day 0, buffycoats were obtained by a clinical facility, and PBMCs were isolated by density centrifugation using Ficoll™. CD3 enrichment was performed using magnetic beads, PanT cell isolation from Myltenyi Biotec. The T cells were activated with aCD^3/aCD28 Dynabeads (3:1 ratio).
On Day 2, a first round of transduction was performed with lentivirus. On Day 3, a second round of transduction was performed with lentivirus.
On Day 6, the beads were removed. On Day 6-8, Flow cytometry sorting was performed with a FACSAria II (BD).
The cells were cultured in RPMI, 10% FBS, penicillin-streptomycin, and 100IU of IL-2. Cells were plated at a density of 0.3×10^6 cells/ml until day 15, then 0.5×10^6 cells/ml and after day 25 at 1×10^6 cells/ml.
A short hairpin RNA (shRNA) directed against USP16 (shUSP16) was purchased from Dharmacon. […] Between 0.15 and 0.5×10^6 cells were plated post-sorting with a purity higher than 90% and counted every 2-4 days by Trypan Blue exclusion using Vi-CELL XR cell counter (Beckman Coulter). Proliferation was measured as expansion ratio compared to the initial cell seeding. […]
A new set of shRNAs were cloned into the pSIH backbone, where the shRNA expression is driven by the H1 promoter. […] Proliferation was measured as fold increased compared to shControl at day 15 post-activation. […]

LEF1 = assay: qPCR of WNT pathway regulator LEF1; type: cell-based, human; conditions: for LEF1 expression, fold change vs Control: CD19.CAR; for LEF1 expression, fold change vs Control / LEF1 expression vs Control: day 15, n=4; for LEF1 expression vs Control: GD2.CAR
Source text: Primary T cells were activated as described (Example 3), transduced with a lentivirus encoding either a shUSP16 #1, shUSP16 #2 or a non-targeting shRNA (shCtrl) and cells were selected with puromycin at day 6. At day 15 cell were collected and analyzed by qPCR for the expression of LEF1 (FIG. 16A) and TCF7 (FIG. 16B), downstream regulators of the WNT pathway. At day 20, cells were stained for CD4-PE, CD8-BV510, CD62L-Allophycocyanin and CD45RA-APC-Cy7 (Biolegend). Stem cell memory T cells (Tscm) were identified as Sytox^− GFP^+CD45RA^+CD62L^+, central memory T cells (Tcm) as Sytox^−GFP^+CD45RA^−CD62L^+, effector memory T cells (Tem) as Sytox^−GFP^+CD45RA^−CD62L^−, and terminal effector T cell (Teff) as Sytox^−GFP^+CD45RA^+CD62L^− (FIG. 17A). Cells were gated on the CD8 population. The specific increase of Tscm was shown as phenotype ratio (FIG. 17B).
Primary T cells were activated as described (Example 3), transduced with a lentivirus encoding for either a CD19.CAR or a GD2.CAR co-expressing shUSP16 #1, shUSP16 #2 or a scrambled shRNA (Control). Fifteen days post-activation, T cells were collected and qPCR performed. TaqMan probes detecting CDKN1A, CDKN2A (FIGS. 26A and 26B) (fold change GD2.CAR (n=4): CDKN1A Control vs shUSP #1: 0.4360, p<0.0001, and Control vs shUSP16 #2: 3.036, p=0.004 respectively. Fold change CD19.CAR (n=4): CDKN2a, CDKN1A Control vs shUSP #1: 0.6906, p=0.0026; 0.7228, p=0.0297 and Control vs shUSP16 #2: 0.8385, p=0.2325; 0.7017, p=0.0021), TCF7, LEF1, and Axin-2 (FIGS. 27A and B) were analyzed in GD2.CAR and CD19.CAR-expressing cells, respectively. ACTB was used as internal control. (GD2.CAR (n=4) TCF7, LEF1 and Axin-2: Control vs shUSP #1: 1.914 p=0.0512; 1.795 p=0.0323; 3.269 p=0.15 and Control vs shUSP16 #2: 1.284 p=0.0494; 1.718 p=0.0586; 2.035p=0.235, respectively. Fold change CD19.CAR (n=4): TCF7, LEF1 and Axin-2: Control vs shUSP #1: 1.528, p=0.0277; 1.82, p=0.0449; 1.998, p=0.031 and Control vs shUSP16 #2: 1.18, p=0.2002; 1.579, p=0.0632; 1.261, p=0.2382). USP16 downregulation in CAR-T cells results in a decreased expression of senescence markers and an increase in the expression of genes associated with the activation/increased signaling of the WNT pathway, indicating its importance in delaying cellular senescence and increasing self-renewal.

Substance | proliferation, fold increased compared to shControl (primary T cells) | LEF1 expression, fold change vs Control (LEF1) | LEF1 expression vs Control (LEF1) | LEF1 expression, fold increase over Control (LEF1; primary T cells, day 15)
shUSP16 #1: shRNA targeting USP16, 5′-GACTGTAAGACTGACAATAAA-3′ (SEQ ID NO: 8), pSIH backbone or co-expressed in CAR plasmid | about 1.31 folds | 1.82 | 1.795 | 1.650
shUSP16 #2: shRNA targeting USP16, 5′-TATATCAGTTCACCCGTAAT-3′ (SEQ ID NO: 9), pSIH backbone or co-expressed in CAR plasmid | ~2.33 folds | 1.579 | 1.718 | 

From patent US20210290680A1, “METHODS AND COMPOSITIONS FOR MODULATING CELLULAR AGING” (Dorian Therapeutics, Inc., priority 2019, published 2021)
